Reference: ChEMBL document CHEMBL4359811, “Development of Potent and Selective Pyrazolopyrimidine IRAK4 Inhibitors” (J Med Chem, 2019)

Key:
[1] = Volume of distribution at steady state in monkey at 1 mg/kg, iv; assay type: ADME, organism-based, Macaca mulatta; conditions: rhesus monkey, in vivo, read-out: Vdss
[2] = AUC (infinity) in mouse at 100 mg/kg, po administered as suspension in 10% captisol; assay type: ADME, organism-based; set-up: dose 100 mg/kg, route oral, time infinity; conditions: in vivo
[3] = Cmax in mouse at 100 mg/kg, po administered as suspension in MCT; assay type: ADME, organism-based; set-up: dose 100 mg/kg, route oral; conditions: in vivo
[4] = Oral bioavailability in mouse at 5 mg/kg; assay type: ADME, organism-based; conditions: in vivo
[5] = Half-life in mouse at 10 mg/kg, po; assay type: ADME, organism-based; conditions: in vivo
[6] = Cmax in mouse at 5 mg/kg, po; assay type: ADME, organism-based; set-up: dose 5 mg/kg, route oral; conditions: in vivo, read-out: Cmax
Mus musculus [7] = experiment: In vivo inhibition of IRAK4 in CpG ODN 1826 induced C57BL/6 mouse assessed as blockade of TLR9 signalling by measuring IL-6 levels at 3 mg/kg, po treated 1 hr prior to CpG ODN 1826 stimulation and measured after 1 hr by MSD assay; assay type: functional; set-up: scale not given: the % may be the effect or the level left
[8] = Plasma clearance in dog at 0.3 mg/kg, iv; assay type: ADME, organism-based, Canis lupus familiaris
[9] = Volume of distribution at steady state in rat at 1 mg/kg, iv; assay type: ADME, organism-based; conditions: in vivo, read-out: Vdss
[10] = Cmax in mouse at 10 mg/kg, po; assay type: ADME, organism-based; set-up: dose 10 mg/kg, route oral; conditions: in vivo
[11] = Protein binding in monkey plasma at 5 uM incubated for 4 hrs by LC-MS/MS analysis; assay type: ADME, cell-free, Macaca mulatta; conditions: rhesus monkey, read-out: PPB (converted)
[12] = Half-life in mouse at 5 mg/kg, po; assay type: ADME, organism-based; conditions: in vivo
[13] = Cmax in monkey at 1 mg/kg, po; assay type: ADME, organism-based, Macaca mulatta; set-up: dose 1 mg/kg, route oral; conditions: rhesus monkey, in vivo
[14] = AUC (infinity) in rat at 1 mg/kg, po; assay type: ADME, organism-based; set-up: dose 1 mg/kg, time infinity, route oral; conditions: in vivo
[15] = Oral bioavailability in mouse at 300 mg/kg administered as suspension in MCT; assay type: ADME, organism-based; conditions: in vivo
[16] = Half-life in mouse at 300 mg/kg, po administered as suspension in MCT; assay type: ADME, organism-based; conditions: in vivo
Mus musculus [17] = experiment: In vivo inhibition of IRAK4 in CpG ODN 1826 induced C57BL/6 mouse assessed as blockade of TLR9 signalling by measuring TNFalpha levels at 30 mg/kg, po treated 1 hr prior to CpG ODN 1826 stimulation and measured after 1 hr by MSD assay; assay type: functional; set-up: scale not given: the % may be the effect or the level left
[18] = Cmax in dog at 1 mg/kg, po; assay type: ADME, organism-based, Canis lupus familiaris; set-up: dose 1 mg/kg, route oral; conditions: in vivo
[19] = Cmax in mouse at 100 mg/kg, po administered as suspension in 10% captisol; assay type: ADME, organism-based; set-up: dose 100 mg/kg, route oral; conditions: in vivo
Mus musculus [20] = experiment: In vivo inhibition of IRAK4 in CpG ODN 1826 induced C57BL/6 mouse assessed as blockade of TLR9 signalling by measuring IL-6 levels at 30 mg/kg, po treated 1 hr prior to CpG ODN 1826 stimulation and measured after 1 hr by MSD assay; assay type: functional; set-up: scale not given: the % may be the effect or the level left
[21] = Protein binding in mouse plasma at 5 uM incubated for 4 hrs by LC-MS/MS analysis; assay type: ADME, cell-free; conditions: read-out: PPB (converted)
[22] = Cmax in rat at 1 mg/kg, po; assay type: ADME, organism-based; set-up: dose 1 mg/kg, route oral; conditions: in vivo
[23] = Drug concentration in CpG ODN 1826 induced C57BL/6 mouse plasma at 1 to 100 mg/kg, po treated 1 hr prior to CpG ODN 1826 stimulation and measured after 1 hr by MSD assay; assay type: ADME, organism-based; conditions: in vivo
[24] = AUC (infinity) in mouse at 10 mg/kg, po; assay type: ADME, organism-based; set-up: dose 10 mg/kg, route oral, time infinity; conditions: in vivo
[25] = Cmax in mouse at 300 mg/kg, po administered as suspension in MCT; assay type: ADME, organism-based; set-up: dose 300 mg/kg, route oral; conditions: in vivo
[26] = Half-life in monkey at 1 mg/kg, po; assay type: ADME, organism-based, Macaca mulatta; conditions: rhesus monkey, in vivo
[27] = Volume of distribution at steady state in mouse at 1 mg/kg, iv; assay type: ADME, organism-based; conditions: in vivo, read-out: Vdss
[28] = Apparent permeability from apical to basolateral side in MDCK cells at 10 uM incubated for 180 mins and measured up to 180 min by LC-MS/MS analysis; assay type: ADME, cell-based, Canis lupus familiaris; conditions: dog
[29] = Protein binding in dog plasma at 5 uM incubated for 4 hrs by LC-MS/MS analysis; assay type: ADME, cell-free, Canis lupus familiaris; conditions: read-out: PPB (converted)
[30] = Cmax in mouse at 30 mg/kg, po; assay type: ADME, organism-based; set-up: dose 30 mg/kg, route oral; conditions: in vivo
Mus musculus [31] = experiment: In vivo inhibition of IRAK4 in CpG ODN 1826 induced C57BL/6 mouse assessed as blockade of TLR9 signalling by measuring TNFalpha levels at 100 mg/kg, po treated 1 hr prior to CpG ODN 1826 stimulation and measured after 1 hr by MSD assay; assay type: functional; set-up: scale not given: the % may be the effect or the level left
[32] = Half-life in mouse at 300 mg/kg, po administered as suspension in 10% captisol; assay type: ADME, organism-based; conditions: in vivo
[33] = Oral bioavailability in mouse at 100 mg/kg administered as suspension in 10% captisol; assay type: ADME, organism-based; conditions: in vivo
[34] = Volume of distribution at steady state in dog at 0.3 mg/kg, iv; assay type: ADME, organism-based, Canis lupus familiaris; conditions: in vivo, read-out: Vdss
[35] = AUC (infinity) in mouse at 100 mg/kg, po administered as suspension in MCT; assay type: ADME, organism-based; set-up: dose 100 mg/kg, time infinity, route oral; conditions: in vivo
[36] = Oral bioavailability in mouse at 100 mg/kg administered as suspension in MCT; assay type: ADME, organism-based; conditions: in vivo
[37] = AUC (infinity) in dog at 1 mg/kg, po; assay type: ADME, organism-based, Canis lupus familiaris; set-up: dose 1 mg/kg, time infinity, route oral; conditions: in vivo
[38] = Protein binding in rat plasma at 5 uM incubated for 4 hrs by LC-MS/MS analysis; assay type: ADME, cell-free; conditions: read-out: PPB (converted)
Mus musculus [39] = experiment: In vivo inhibition of IRAK4 in CpG ODN 1826 induced C57BL/6 mouse assessed as blockade of TLR9 signalling by measuring TNFalpha levels at 10 mg/kg, po treated 1 hr prior to CpG ODN 1826 stimulation and measured after 1 hr by MSD assay; assay type: functional; set-up: scale not given: the % may be the effect or the level left
[40] = AUC (infinity) in monkey at 1 mg/kg, po; assay type: ADME, organism-based, Macaca mulatta; set-up: dose 1 mg/kg, time infinity, route oral; conditions: rhesus monkey, in vivo
[41] = Half-life in mouse at 100 mg/kg, po administered as suspension in MCT; assay type: ADME, organism-based; conditions: in vivo
[42] = Cmax in mouse at 300 mg/kg, po administered as suspension in 10% captisol; assay type: ADME, organism-based; set-up: dose 300 mg/kg, route oral; conditions: in vivo
[43] = Half-life in mouse at 30 mg/kg, po; assay type: ADME, organism-based; conditions: in vivo
[44] = Plasma clearance in mouse at 1 mg/kg, iv; assay type: ADME, organism-based
Mus musculus [45] = experiment: In vivo inhibition of IRAK4 in CpG ODN 1826 induced C57BL/6 mouse assessed as blockade of TLR9 signalling by measuring TNFalpha levels at 1 mg/kg, po treated 1 hr prior to CpG ODN 1826 stimulation and measured after 1 hr by MSD assay; assay type: functional; set-up: scale not given: the % may be the effect or the level left
[46] = Half-life in dog at 1 mg/kg, po; assay type: ADME, organism-based, Canis lupus familiaris; conditions: in vivo
Mus musculus [47] = experiment: In vivo inhibition of IRAK4 in CpG ODN 1826 induced C57BL/6 mouse assessed as blockade of TLR9 signalling by measuring IL-6 levels at 10 mg/kg, po treated 1 hr prior to CpG ODN 1826 stimulation and measured after 1 hr by MSD assay; assay type: functional; set-up: scale not given: the % may be the effect or the level left
[48] = AUC (infinity) in mouse at 30 mg/kg, po; assay type: ADME, organism-based; set-up: dose 30 mg/kg, time infinity, route oral; conditions: in vivo
[49] = Oral bioavailability in dog at 1 mg/kg; assay type: ADME, organism-based, Canis lupus familiaris; conditions: in vivo
[50] = Protein binding in human plasma at 5 uM incubated for 4 hrs by LC-MS/MS analysis; assay type: ADME, cell-free; conditions: read-out: PPB (converted)

Compound: C[C@]1(CO)Cc2cc(NC(=O)c3cnn4cccnc34)c(N3CCOCC3)cc2O1
- Vd [1]: 4.4 L/kg
- AUC(0-inf) [2]: 98 µM·h
- Cmax [3]: 4.8 µM
- bioavailability [4]: 59%
- half-life [5]: 1.3 h
- Cmax [6]: 2.1 µM
- Activity (Mus musculus [7]): -27%
- clearance [8]: 9.3 mL/min/kg
- Vd [9]: 2.3 L/kg
- Cmax [10]: 5.4 µM
- fraction unbound at 4 h, 5 µM [11]: 0.49
- half-life [12]: 0.5 h
- Cmax [13]: 0.3 µM
- AUC(0-inf) [14]: 3 µM·h
- bioavailability [15]: 22%
- half-life [16]: 23.2 h
- Activity (Mus musculus [17]): -79%
- Cmax [18]: 0.2 µM
- Cmax [19]: 9.7 µM
- Activity (Mus musculus [20]): -78%
- fraction unbound at 4 h, 5 µM [21]: 0.14
- Cmax [22]: 0.4 µM
- Drug uptake [23]: Active
- AUC(0-inf) [24]: 10 µM·h
- Cmax [25]: 10 µM
- half-life [26]: 3 h
- Vd [27]: 1.1 L/kg
- Papp A→B at 3 h, 10 µM [28]: 15 ×10⁻⁶ cm/s
- fraction unbound at 4 h, 5 µM [29]: 0.34
- Cmax [30]: 7.2 µM
- Activity (Mus musculus [31]): -89%
- half-life [32]: 42 h
- bioavailability [33]: 49%
- Vd [34]: 8 L/kg
- AUC(0-inf) [35]: 15.1 µM·h
- bioavailability [36]: 19%
- AUC(0-inf) [37]: 1.4 µM·h
- fraction unbound at 4 h, 5 µM [38]: 0.21
- Activity (Mus musculus [39]): -39%
- AUC(0-inf) [40]: 3.3 µM·h
- half-life [41]: 1.6 h
- Cmax [42]: 14 µM
- half-life [43]: 1.3 h
- clearance [44]: 54 mL/min/kg
- Activity (Mus musculus [45]): 3%
- half-life [46]: 1.7 h
- Activity (Mus musculus [47]): -69%
- AUC(0-inf) [48]: 17 µM·h
- bioavailability [49]: 30%
- fraction unbound at 4 h, 5 µM [50]: 0.44
